# In patent US20220409578A1, “FUNCTIONALIZED 1,3-BENZENE DIOLS AND THEIR METHOD OF USE FOR THE TREATMENT OF RADIATION DERMATITIS AND OTHER SKIN DISORDERS” (KANNALIFE SCIENCES, INC., priority 2019, published 2022):
# Tested on: CXCL5
# Assay: CXCL5 chemokine secretion by UV-B irradiated NHEKs (ELISA)
# Type: cell-based, human
# Method: Normal human epidermal keratinocytes cultures were utilized to measure the release of proinflammatory cytokines and chemokines. Primary epidermal keratinocytes from neonatal donors were used from human origin and purchased from Thermo-Fisher (Cat No. A13401). […] Cells were cultured until the second passage and then acclimated for 48 hours more before UV-B irradiation. Dosing procedures and cell groups were identified using appropriate cell culture 24-well plates. The cell culture incubator was set at 5% v/v CO2 with temperature and humidity maintained at 36-38° C. and 40-70%, respectively. The test and control substances were administered to HKGS-depleted medium in triplicates. A fixed 5 μL/well from 100× stock dose volume was administered to 500 μL of media to each cell culture well on Day 3 and pre-incubated for 6 hours and then post-UVB incubated for 18 hours. […] CXCL5 levels were quantified by enzyme-linked immunosorbent assay (ELISA) after UV-B irradiation and incubation with test and control materials. CXCL5 levels were assessed from cell culture media supernatants using R&D Systems Human CXCL5/ENA-78 DuoSet ELISA kit (Cat. No. DY254-05) according to the manufacture's specifications. Absorbance was measured at 450 nm using plate reader and cytokine levels were calculated from a standard curve.
compound,measurement,setting,value
"C=C(C)[C@@H]1CCC(C)=C[C@H]1c1c(O)cc(CC2CN(C(=O)OCC)C2)cc1O [KLS-13022, ethyl 3-(3,5-dihydroxy-4-((1R,6R)-3-methyl-6-(prop-1-en-2-yl)cyclohex-2-enyl)benzyl)azetidine-1-carboxylate]",CXCL5 inhibition,,100%
same,IC50,"Homo sapiens, NHEK, light or radiation study, read-out: IC50 of CXCL5 inhibition",50 nM
